Tests used:
[1] = instrument: DT, stepped-field
[2] = [M+H]+; instrument: TW; Major Mix IMS/Tof Calibration Kit (Waters)

| Compound | collision cross section (N2) ([1]; [M+Na]+) [Å²] | collision cross section (N2) [2] [Å²] | also measured |
| --- | --- | --- | --- |
| NCCCC[C@H](NC(=O)[C@H](CC(=O)O)NC(=O)CNC(=O)[C@@H](N)CC(=O)O)C(=O)O [DGDK] | – | – | collision cross section (N2) ([1]; [M+H]+): 195.8 Å² |
| CCC(C)[C@H](N)C(=O)NCC(=O)N[C@@H](CO)C(=O)N[C@@H](CCC(=O)O)C(=O)N[C@H](C(=O)N[C@@H](Cc1ccc(O)cc1)C(=O)N[C@@H](Cc1c[nH]cn1)C(=O)N[C@@H](CC(N)=O)C(=O)N[C@@H](CC(C)C)C(=O)N[C@@H](CCCCN)C(=O)O)C(C)C (stereo not given in full) [IGSEVYHNLK] | – | – | collision cross section (N2) ([1]; [M+H]+): 348.4 Å² |
| NCCCC[C@H](NC(=O)CNC(=O)[C@H](Cc1c[nH]c2ccccc12)NC(=O)[C@@H](N)Cc1ccccc1)C(=O)O [FWGK] | – | – | collision cross section (N2) ([1]; [M+H]+): 231 Å² |
| CCC=CCC=CCC=CCC=CCC=CCC=CCC=CCC(=O)OC[C@H](COP(=O)(O)OC[C@H](N)C(=O)O)OC(=O)CC=CCC=CCC=CCC=CCC=CCC=CCC=CCC [PS(48:14)] | 312 | – | collision cross section (N2) ([1]; [M+K]+): 311 Å² |
| OCC1OC(OC2(CO)OC(CO)C(O)C2O)C(O)C(O)C1O (stereo not given) [(Hex)2] | – | – | collision cross section (N2) ([1]; [M+Na-H2O]+): 172.1 Å² |
| OCC1OC(OC2C(CO)OC(OC3C(CO)OC(OC4C(CO)OC(OC5C(CO)OC(O)C(O)C5O)C(O)C4O)C(O)C3O)C(O)C2O)C(O)C(O)C1O (stereo not given) [(Hex)5] | 259.5 | – | collision cross section (N2) ([1]; [M+H-H2O]+): 282.3 Å²; collision cross section (N2) ([1]; [M+Na-H2O]+): 263.1 Å² |
| CC/C=C\C/C=C\C/C=C\C/C=C\C/C=C\C/C=C\CCC(=O)OC[C@H](COP(=O)([O-])OCC[N+](C)(C)C)OC(=O)CCCCCCC/C=C\CCCCCCC [PC(39:7)] | – | – | collision cross section (N2) ([1]; [M+K]+): 303.8 Å² |
| CC(C)C[C@H](NC(=O)[C@H](CO)NC(=O)[C@H](C)NC(=O)[C@@H](N)C(C)C)C(=O)N[C@@H](CCCNC(=N)N)C(=O)O [VASLR] | – | – | collision cross section (N2) ([1]; [M+H]+): 232.5 Å² |
| CCCCC/C=C\C/C=C\CCCCCCCCCC(=O)O[C@H](COC(=O)CCCCCCC/C=C\CCCCCCC)COP(=O)(O)OCCN [PE(37:3)] | 286.2 | – | collision cross section (N2) ([1]; [M+K]+): 286.5 Å² |
| CC(C)C[C@H](NC(=O)[C@H](Cc1ccc(O)cc1)NC(=O)[C@H](C)NC(=O)[C@H](C)NC(=O)[C@@H](N)Cc1ccccc1)C(=O)N[C@@H](CCC(=O)O)C(=O)N[C@@H](CCCNC(=N)N)C(=O)O [FAAYLER] | – | – | collision cross section (N2) ([1]; [M+H]+): 295.5 Å² |
| CCCCC=CCC=CCC=CCC=CCC=CCC=CCC=CCC=CCC(=O)N[C@@H](CO[C@@H]1O[C@H](CO)[C@@H](O)C(O)C1O)[C@H](O)CC=CCCCCCCCCCCCC (stereo not given in full) [GlcCer(47:9)] | – | – | collision cross section (N2) ([1]; [M+K]+): 316.4 Å² |
| CC/C=C\C/C=C\C/C=C\C/C=C\C/C=C\CCCC(=O)O[C@H](COC(=O)CCCCCCC/C=C\CCCCCCCCC)COP(=O)([O-])OCC[N+](C)(C)C [PC(39:6)] | – | – | collision cross section (N2) ([1]; [M+K]+): 303.4 Å² |
| CC(C)C[C@H](NC(=O)[C@H](CC(=O)O)NC(=O)[C@H](C)N)C(=O)N[C@@H](C)C(=O)N[C@@H](CCCCN)C(=O)O [ADLAK] | – | – | collision cross section (N2) ([1]; [M+H]+): 228.3 Å² |
| C[C@H](N)C(=O)N[C@@H](C)C(=O)NCC(=O)N[C@@H](Cc1c[nH]cn1)C(=O)N[C@@H](CC(=O)O)C(=O)NCC(=O)N[C@@H](CCCCN)C(=O)O [AAGHDGK] | – | – | collision cross section (N2) ([1]; [M+H]+): 249 Å² |
| CCCCCCCCCCCCC=CC[C@@H](O)[C@H](COP(=O)([O-])OCC[N+](C)(C)C)NC(=O)CC=CCCCCCCCCCCCCCCCCCCCCCC [SM(44:2)] | 313.5 | – | – |
| CCCCC/C=C\C/C=C\C/C=C\C/C=C\CCCCCC(=O)O[C@H](COC(=O)CCCCCCCCC/C=C\CCCCCCCC)COP(=O)(O)OC[C@H](N)C(=O)O [PS(42:5)] | 307 | – | – |

| Compound | collision cross section (N2) ([1]; [M+Na]+) [Å²] | collision cross section (N2) [2] [Å²] | also measured |
| --- | --- | --- | --- |
| CC/C=C\C/C=C\C/C=C\C/C=C\C/C=C\C/C=C\CCC(=O)O[C@H](COC(=O)CCCCCCCCCCCCCC)COP(=O)([O-])OCC[N+](C)(C)C [PC(37:6)] | – | – | collision cross section (N2) ([1]; [M+K]+): 298.2 Å² |
| CCCCC/C=C\C/C=C\C/C=C\C/C=C\CCCC(=O)OC[C@H](COP(=O)(O)OC[C@H](N)C(=O)O)OC(=O)CCCC/C=C\C/C=C\C/C=C\CCCCC [PS(38:7)] | 290.2 | – | – |
| CCC(C)[C@H](NC(=O)[C@H](CO)NC(=O)[C@@H](NC(=O)[C@@H](N)CO)C(C)CC)C(=O)N[C@H](C(=O)NCC(=O)N[C@@H](CO)C(=O)N[C@@H](Cc1ccc(O)cc1)C(=O)N[C@H](C(=O)NCC(=O)N[C@@H](CC(N)=O)C(=O)N[C@@H](CCCNC(=N)N)C(=O)O)C(C)C)C(C)C (stereo not given in full) [SISIVGSYVGNR] | – | – | collision cross section (N2) ([1]; [M+H]+): 349.1 Å² |
| CC(=O)N[C@H]1[C@H](O[C@H]2[C@@H](O)[C@@H](CO)O[C@@H](O[C@H]3[C@H](O)[C@@H](O)C(O)O[C@@H]3CO)[C@@H]2O)O[C@H](CO)[C@@H](O)[C@@H]1O[C@@H]1O[C@H](CO)[C@H](O)[C@H](O)[C@H]1O[C@@H]1O[C@@H](C)[C@@H](O)[C@@H](O)[C@@H]1O (stereo not given in full) [Lacto-N-Fucopentaose I] | 276.1 | – | collision cross section (N2) ([1]; [M+Cs]+): 275.6 Å²; collision cross section (N2) ([1]; [M+K]+): 274.7 Å²; collision cross section (N2) ([1]; [M+Li]+): 269.6 Å²; collision cross section (N2) ([1]; [M+Rb]+): 275.2 Å² |
| CCCC/C=C\C/C=C\CCCCCCCC(=O)OC[C@H](COP(=O)(O)OCCN)OC(=O)CCCCC/C=C\C/C=C\C/C=C\C/C=C\CCCCC [PE(39:6)] | 286.4 | – | – |
| CC(C)[C@H](NC(=O)[C@@H](N)CC(=O)O)C(=O)N[C@@H](CS)C(=O)N[C@@H](CCCCN)C(=O)O [DVCK] | – | – | collision cross section (N2) ([1]; [M+H]+): 204.7 Å² |
| CCCCCCCC=CCC=CCC=CCC=CCC=CCC(=O)OC[C@H](COP(=O)(O)OC[C@H](N)C(=O)O)OC(=O)CC=CCC=CCC=CCC=CCC=CCCCCCCC [PS(46:10)] | 309.2 | – | collision cross section (N2) ([1]; [M+K]+): 306.3 Å² |
| OC[C@H]1O[C@@H]2O[C@H]3[C@H](O)[C@@H](O)[C@@H](O[C@H]4[C@H](O)[C@@H](O)[C@@H](O[C@H]5[C@H](O)[C@@H](O)[C@@H](O[C@H]6[C@H](O)[C@@H](O)[C@@H](O[C@H]7[C@H](O)[C@@H](O)[C@@H](O[C@H]1[C@H](O)[C@H]2O)O[C@@H]7CO)O[C@@H]6CO)O[C@@H]5CO)O[C@@H]4CO)O[C@@H]3CO [Alpha-Cyclodextrin] | 285.5 | – | collision cross section (N2) ([1]; [M+H]+): 285.2 Å²; collision cross section (N2) ([1]; [M+K]+): 287.7 Å² |
| c1ccc([C@H]2CN3CCSC3=N2)cc1 [Levamisole] | – | 144.6 | – |
| CN(C)CC/C=C1/c2ccccc2Sc2ccc(Cl)cc21 [Chlorprothixene] | – | 170.1 | – |
| Cc1cccc(Cc2cnc[nH]2)c1C [Detomidine] | – | 146.8 | – |
| CN(C)CC(c1ccc(O)cc1)C1(O)CCCCC1 (stereo not given) [Desvenlafaxine] | – | 166.7 | – |
| Cc1cccc(C)c1NC1=NCCCS1 [Xylazine] | – | 147.9 | – |
| CC(=O)O[C@H]1C=C[C@H]2[C@H]3Cc4ccc(O)c5c4[C@@]2(CCN3C)[C@H]1O5 [Heroin-M 6-MAM] | – | 175.1 | – |
| COc1ccc2[nH]cc(CCN(C)C)c2c1 [5-MeO-DMT] | – | 150.3 | – |

The next lines start with results.

| collision cross section (N2) ([1]; [M+Na]+) [Å²] | collision cross section (N2) [2] [Å²] | Compound | also measured |
| --- | --- | --- | --- |
| 243.9 | – | NCCCC[C@H](NC(=O)[C@H](CC(N)=O)NC(=O)[C@H](CCC(N)=O)NC(=O)[C@@H](N)Cc1ccccc1)C(=O)O [FQNK] | – |
| 303.3 | – | CC/C=C\C/C=C\C/C=C\C/C=C\C/C=C\C/C=C\CCC(=O)O[C@H](COC(=O)CCCCCCCCCCCCCCCCCC)COP(=O)(O)OC[C@H](N)C(=O)O [PS(41:6)] | – |
| 295 | – | CCCCC/C=C\C/C=C\C/C=C\C/C=C\CCCC(=O)O[C@H](COC(=O)CCCCCCCCCCCCCCCC)COP(=O)(O)OC[C@H](N)C(=O)O [PS(37:4)] | – |
| 295.8 | – | CCCCCCCCCCCCC=CC[C@@H](O)[C@H](CO[C@@H]1O[C@H](CO)[C@@H](O)C(O)C1O)NC(=O)CC=CCC=CCCCCCCCCCCCCCCC (stereo not given in full) [GlcCer(40:3)] | – |
| 178.1 | – | OC[C@H]1O[C@@H](O[C@H]2[C@H](O)[C@@H](O)[C@@H](O)O[C@@H]2CO)[C@H](O)[C@@H](O)[C@H]1O [Lactose] | collision cross section (N2) ([1]; [M+Li]+): 186.3 Å² |
| 300.6 | – | CC=CCC=CCC=CCC=CCC=CCC=CCC(=O)OC[C@H](COP(=O)(O)OCC[N+](C)(C)C)OC(=O)CC=CCC=CCC=CCC=CCC=CCC=CC [PC(40:12)] | – |
| 279.7 | – | CCCCC/C=C\C/C=C\CCCCCCCC(=O)O[C@H](COCCCCCCCCCCCCCCCC)COP(=O)(O)OCCN [PE(o34:2)] | – |
| 302 | – | CC/C=C\C/C=C\C/C=C\C/C=C\C/C=C\C/C=C\CCC(=O)O[C@H](COC(=O)CCCCCC/C=C\C/C=C\C/C=C\CCCCC)COP(=O)(O)OC[C@H](N)C(=O)O [PS(42:9)] | – |
| – | 213.8 | O=c1[nH]ccn1CCN1CCC(c2cn(-c3ccc(F)cc3)c3ccc(Cl)cc23)CC1 [Sertindol-M dehydro] | – |
| – | 194.3 | COc1ccc2c(c1OC)C(=O)O[C@@H]2[C@H]1c2c(cc3c(c2OC)OCO3)CCN1C [Noscapine] | – |
| – | 175.5 | Clc1ccc2c(c1)CCc1cccnc1C2=C1CCNCC1 [Desloratadine] | – |
| – | 173.8 | Clc1ccc2c(c1)N=C(N1CCNCC1)c1ccccc1N2 [Clozapine-M nor] | – |
| – | 157.7 | CCN(CC)CC(=O)Nc1c(C)cccc1C [Lidocaine] | – |
| – | 194.6 | COc1cc2nc(N(C)CCCNC(=O)C3CCCO3)nc(N)c2cc1OC (stereo not given) [Alfuzosin] | – |
| – | 174.3 | CNC[C@@H](C)CN1c2ccccc2Sc2ccc(OC)cc21 [Levomepromazine-M N-desmethyl] | – |
| – | 229.8 | CC(C)(C)c1ccc(C(O)CCCN2CCC(C(O)(c3ccccc3)c3ccccc3)CC2)cc1 (stereo not given) [Terfenadine] | – |
| – | 180.8 | CN1[C@@H]2CC[C@H]1C[C@@H](OC(c1ccccc1)c1ccccc1)C2 [Benztropine] | – |

Reference: the C3SDB collision cross section collection
